Test results from PubChem BioAssay AID1963975 (Molecular Pharmacology Branch, DTP, NCI, 2024).
Each block holds one molecule with its values, some of them ahead of it.

Test system: 624824-186-R-J2-PDC multicell spheroids, viability
Assay: Anticancer human tumor 624824-186-R-J2-PDC patient-derived colon adenocarcinoma cell line growth inhibition [PI3K]
Details: for IC50: curve of first compound; for viability, T/C: stronger effect = lower value
Outline: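 Spheroid viability read-out. Co-cultures contained the tumor line plus HUVEC and human MSCs. Each agent was paired with a PI3K inhibitor (inavolisib, alpelisib, duvelisib, copanlisib) across half-log dilutions starting at clinical Cmax, or at 10 microM when Cmax was unknown.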

[1] = second compound 0.00316 µM, first compound 0.0316 µM
[2] = second compound 0.00316 µM, first compound 0.1 µM
[3] = second compound 0.00316 µM, first compound 0.316 µM
[4] = second compound 0.00316 µM, first compound 1 µM
[5] = second compound 0.00316 µM, first compound 3.16 µM
[6] = second compound 0.00316 µM, first compound 10 µM
[7] = second compound 0.01 µM, first compound 0.0316 µM
[8] = second compound 0.01 µM, first compound 0.1 µM
[9] = second compound 0.01 µM, first compound 0.316 µM
[10] = second compound 0.01 µM, first compound 1 µM
[11] = second compound 0.01 µM, first compound 3.16 µM
[12] = second compound 0.01 µM, first compound 10 µM
[13] = second compound 0.0316 µM, first compound 0.0316 µM
[14] = second compound 0.0316 µM, first compound 0.1 µM
[15] = second compound 0.0316 µM, first compound 0.316 µM
[16] = second compound 0.0316 µM, first compound 1 µM
[17] = second compound 0.0316 µM, first compound 3.16 µM
[18] = second compound 0.0316 µM, first compound 10 µM
[19] = second compound 0.1 µM, first compound 0.0316 µM
[20] = second compound 0.1 µM, first compound 0.1 µM
[21] = second compound 0.1 µM, first compound 0.316 µM
[22] = second compound 0.1 µM, first compound 1 µM
[23] = second compound 0.1 µM, first compound 3.16 µM
[24] = second compound 0.1 µM, first compound 10 µM
[25] = second compound 0.316 µM, first compound 0.0316 µM
[26] = second compound 0.316 µM, first compound 0.1 µM
[27] = second compound 0.316 µM, first compound 0.316 µM
[28] = second compound 0.316 µM, first compound 1 µM
[29] = second compound 0.316 µM, first compound 3.16 µM
[30] = second compound 0.316 µM, first compound 10 µM
[31] = second compound 1 µM, first compound 0.0316 µM
[32] = second compound 1 µM, first compound 0.1 µM
[33] = second compound 1 µM, first compound 0.316 µM
[34] = second compound 1 µM, first compound 1 µM
[35] = second compound 1 µM, first compound 3.16 µM
[36] = second compound 1 µM, first compound 10 µM
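Also: spheroids exposed to agents for 7 days before viability read.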
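For viability, T/C in this document: 100% = DMSO vehicle treated spheroids.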

IC50 (second compound 0.00316 µM): > 10 µM | IC50 (second compound 0.01 µM): > 10 µM | IC50 (second compound 0.0316 µM): > 10 µM | IC50 (second compound 0.1 µM): > 10 µM | IC50 (second compound 0.316 µM): > 10 µM | IC50 (second compound 1 µM): > 10 µM
Compound: Cn1ncc(Cl)c1-c1cc(C(=O)NC(CN)Cc2cccc(F)c2)sc1Cl (centres undefined) + CC(Nc1ccc2c(c1)OCCn1cc(N3C(=O)OCC3C(F)F)nc1-2)C(N)=O
viability, T/C [1]: 106% | viability, T/C [2]: 97.5% | viability, T/C [3]: 75.8% | viability, T/C [4]: 87.1% | viability, T/C [5]: 67.7% | viability, T/C [6]: 78.8% | viability, T/C [7]: 107% | viability, T/C [8]: 78.8% | viability, T/C [9]: 70.9% | viability, T/C [10]: 78.8% | viability, T/C [11]: 79.6% | viability, T/C [12]: 50.4% | viability, T/C [13]: 101% | viability, T/C [14]: 71.9% | viability, T/C [15]: 75.7% | viability, T/C [16]: 85.9% | viability, T/C [17]: 78.7% | viability, T/C [18]: 58.8% | viability, T/C [19]: 75% | viability, T/C [20]: 100% | viability, T/C [21]: 74.5% | viability, T/C [22]: 81.8% | viability, T/C [23]: 76.9% | viability, T/C [24]: 53.1% | viability, T/C [25]: 71.3% | viability, T/C [26]: 81.5% | viability, T/C [27]: 92.6% | viability, T/C [28]: 85.1% | viability, T/C [29]: 75.4% | viability, T/C [30]: 57.3% | viability, T/C [31]: 86.7% | viability, T/C [32]: 77.8% | viability, T/C [33]: 95.4% | viability, T/C [34]: 76.7% | viability, T/C [35]: 75.7% | viability, T/C [36]: 59.3%

IC50 (second compound 0.00316 µM): > 10 µM | IC50 (second compound 0.01 µM): > 10 µM | IC50 (second compound 0.0316 µM): > 10 µM | IC50 (second compound 0.1 µM): 6.81 µM | IC50 (second compound 0.316 µM): 4.68 µM | IC50 (second compound 1 µM): 4.7 µM
Compound: CC1(C)CCC(CN2CCN(c3ccc(C(=O)NS(=O)(=O)c4ccc(NCC5CCOCC5)c([N+](=O)[O-])c4)c(Oc4cnc5[nH]ccc5c4)c3)CC2)=C(c2ccc(Cl)cc2)C1 + COc1c(OCCCN2CCOCC2)ccc2c3n(c(=NC(=O)c4cnc(N)nc4)nc12)CCN3
viability, T/C [1]: 78.7% | viability, T/C [2]: 82.4% | viability, T/C [3]: 81.6% | viability, T/C [4]: 98% | viability, T/C [5]: 70.5% | viability, T/C [6]: 61% | viability, T/C [7]: 99% | viability, T/C [8]: 83.5% | viability, T/C [9]: 83.1% | viability, T/C [10]: 94.9% | viability, T/C [11]: 78.2% | viability, T/C [12]: 57.5% | viability, T/C [13]: 84.3% | viability, T/C [14]: 90.5% | viability, T/C [15]: 82.6% | viability, T/C [16]: 90.7% | viability, T/C [17]: 78.7% | viability, T/C [18]: 50.2% | viability, T/C [19]: 69% | viability, T/C [20]: 76.8% | viability, T/C [21]: 84.8% | viability, T/C [22]: 78.4% | viability, T/C [23]: 73.1% | viability, T/C [24]: 38.2% | viability, T/C [25]: 60% | viability, T/C [26]: 65.7% | viability, T/C [27]: 72.1% | viability, T/C [28]: 67.9% | viability, T/C [29]: 60.5% | viability, T/C [30]: 28.2% | viability, T/C [31]: 64.7% | viability, T/C [32]: 62.3% | viability, T/C [33]: 63.2% | viability, T/C [34]: 61.4% | viability, T/C [35]: 64.7% | viability, T/C [36]: 24.8%
